Source: ChEMBL document CHEMBL1201861, “Genomics of Drug Sensitity in Cancer screening data, Wellcome Trust Sanger Institute”

Tests used:
Assay in all cases: cells
Conditions in all cases: Homo sapiens
HCC1569 = type: functional, cell-based;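 also: growth inhibition of human HCC1569 cells, read out with a cell viability assay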
Description: SANGER: Inhibition of human HCC1569 cell growth in a cell viability assay.

LN-405 = type: functional, cell-based
Description: SANGER: Inhibition of human LN-405 cell growth in a cell viability assay.

KYSE-520 cell line = type: functional, cell-based;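 also: growth inhibition of human KYSE-520 cells, read out with a viability assay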
Description: SANGER: Inhibition of human KYSE-520 cell growth in a cell viability assay.

SW1088 = type: functional, cell-based;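 also: growth inhibition of human SW1088 cells, read out by a cell viability assay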
Description: SANGER: Inhibition of human SW1088 cell growth in a cell viability assay.

769-P = type: functional, cell-based
Description: SANGER: Inhibition of human 769-P cell growth in a cell viability assay.

PANC-03-27 = type: functional, cell-based
Description: SANGER: Inhibition of human PANC-03-27 cell growth in a cell viability assay.

BXPC-3 = type: functional, cell-based;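 also: growth inhibition of human BxPC-3 cells, read out by a cell viability assay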
Description: SANGER: Inhibition of human BxPC-3 cell growth in a cell viability assay.

639-V = type: functional, cell-based;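 also: growth inhibition of 639-V cells, read out with a cell viability assay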
Description: SANGER: Inhibition of human 639-V cell growth in a cell viability assay.

786-0 = type: functional, cell-based
Description: SANGER: Inhibition of human 786-0 cell growth in a cell viability assay.

Daoy = type: functional, cell-based;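 also: daoy cell growth inhibition, read out as cell viability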
Description: SANGER: Inhibition of human Daoy cell growth in a cell viability assay.

SK-N-AS = type: functional, cell-based;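 also: growth inhibition of human SK-N-AS cells, measured with a cell viability assay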
Description: SANGER: Inhibition of human SK-N-AS cell growth in a cell viability assay.

NCI-H2452 = type: functional, cell-based;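 also: growth inhibition of NCI-H2452 cells, read out with a cell viability assay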
Description: SANGER: Inhibition of human NCI-H2452 cell growth in a cell viability assay.

MDA-MB-415 = type: functional, cell-based
NCI-H1793 = type: functional, cell-based;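 also: cell growth inhibition, read out by a cell viability assay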
Description: SANGER: Inhibition of human NCI-H1793 cell growth in a cell viability assay.

LoVo = type: functional, cell-based;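 also: growth inhibition of human LoVo cells, read out with a cell viability assay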
Description: SANGER: Inhibition of human LoVo cell growth in a cell viability assay.

HGC-27 = type: functional, cell-based;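 also: growth inhibition of human HGC-27 cells, read out in a cell viability assay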
Description: SANGER: Inhibition of human HGC-27 cell growth in a cell viability assay.

HLE = type: functional, cell-based;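 also: growth inhibition of human HLE cells, read out by a cell viability assay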
Description: SANGER: Inhibition of human HLE cell growth in a cell viability assay.

SN12C = type: functional, cell-based;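 also: growth inhibition of human SN12C cells, measured by a cell viability assay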
Description: SANGER: Inhibition of human SN12C cell growth in a cell viability assay.

EFO-27 = type: functional, cell-based;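 also: growth inhibition of EFO-27 cells, read out with a cell viability assay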
Description: SANGER: Inhibition of human EFO-27 cell growth in a cell viability assay.

T84 = type: functional, cell-based;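 also: growth inhibition measured with a cell viability readout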
Description: SANGER: Inhibition of human T84 cell growth in a cell viability assay.

CAL-27 = type: functional, cell-based;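 also: Viability-based readout, IC50 reflecting inhibition of CAL-27 cell growth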
Description: SANGER: Inhibition of human CAL-27 cell growth in a cell viability assay.

NCI-H2087 = type: functional, cell-based;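 also: growth inhibition determined with a cell viability readout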
Description: SANGER: Inhibition of human NCI-H2087 cell growth in a cell viability assay.

ABC-1 = type: functional, cell-based;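 also: growth inhibition of human ABC-1 cells, read out by a cell viability assay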
Description: SANGER: Inhibition of human ABC-1 cell growth in a cell viability assay.

8505C = type: functional, cell-based
Description: SANGER: Inhibition of human 8505C cell growth in a cell viability assay.

SW948 = type: functional, cell-based;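 also: growth inhibition of SW948 cells, read out with a cell viability assay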
Description: SANGER: Inhibition of human SW948 cell growth in a cell viability assay.

NCI-H1623 = type: functional, cell-based;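 also: cell viability assay used as the read-out for growth inhibition of NCI-H1623 cells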
Description: SANGER: Inhibition of human NCI-H1623 cell growth in a cell viability assay.

CAL-62 = type: functional, cell-based;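 also: growth inhibition of CAL-62 cells, read out with a cell viability assay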
Description: SANGER: Inhibition of human CAL-62 cell growth in a cell viability assay.

UMC-11 = type: functional, cell-based;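 also: growth inhibition of UMC-11 cells, read out with a cell viability assay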
Description: SANGER: Inhibition of human UMC-11 cell growth in a cell viability assay.

RT-112 = type: functional, cell-based
Description: SANGER: Inhibition of human RT-112 cell growth in a cell viability assay.

CaR-1 = type: functional, cell-based;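 also: growth inhibition of human CaR-1 cancer cells, read out with a cell viability assay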
Description: SANGER: Inhibition of human CaR-1 cell growth in a cell viability assay.

NCI-H1792 = type: functional, cell-based;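 also: growth inhibition of human NCI-H1792 cells, read out as cell viability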
Description: SANGER: Inhibition of human NCI-H1792 cell growth in a cell viability assay.

C-33-A = type: functional, cell-based;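 also: cell viability assay measuring growth inhibition of C-33-A cells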
Description: SANGER: Inhibition of human C-33-A cell growth in a cell viability assay.

WM-115 = type: functional, cell-based
Description: SANGER: Inhibition of human WM-115 cell growth in a cell viability assay.

SW837 = type: functional, cell-based;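 also: growth inhibition of SW837 cells, determined with a cell viability assay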
Description: SANGER: Inhibition of human SW837 cell growth in a cell viability assay.

FaDu = type: functional, cell-based;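 also: cell viability readout of growth inhibition in FaDu cells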
Description: SANGER: Inhibition of human FADU cell growth in a cell viability assay.

SW1463 = type: functional, cell-based;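 also: growth inhibition of SW1463 cells, determined with a cell viability assay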
Description: SANGER: Inhibition of human SW1463 cell growth in a cell viability assay.

D-392MG = type: functional, cell-based
DMS-273 = type: functional, cell-based
Description: SANGER: Inhibition of human DMS-273 cell growth in a cell viability assay.

GAMG = type: functional, cell-based;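 also: cell growth inhibition measured by a viability assay in the GAMG human cell line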
Description: SANGER: Inhibition of human GAMG cell growth in a cell viability assay.

HT1197 = type: functional, cell-based, HT-1197
Description: SANGER: Inhibition of human HT-1197 cell growth in a cell viability assay.

KOSC-2 = type: functional, cell-based;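 also: growth inhibition of KOSC-2 cells, read out by a cell viability assay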
Description: SANGER: Inhibition of human KOSC-2 cell growth in a cell viability assay.

CAPAN-1 = type: functional, cell-based;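 also: growth suppression of CAPAN-1 cells, read out by a cell viability assay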
Description: SANGER: Inhibition of human CAPAN-1 cell growth in a cell viability assay.

A-427 = type: functional, cell-based;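 also: growth inhibition of human A-427 cells, read out by a cell viability assay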
Description: SANGER: Inhibition of human A427 cell growth in a cell viability assay.

SW13 = type: functional, cell-based;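 also: IC50 is inhibition of SW13 cell growth, read out with a cell viability assay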
Description: SANGER: Inhibition of human SW13 cell growth in a cell viability assay.

5637 = type: functional, cell-based
Description: SANGER: Inhibition of human 5637 cell growth in a cell viability assay.

Kasumi 1 = type: functional, cell-based;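 also: growth inhibition of human Kasumi-1 cells, read out by a cell viability assay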
Description: SANGER: Inhibition of human KASUMI-1 cell growth in a cell viability assay.

NC(=O)c1ncn([C@@H]2O[C@H](COP(=O)(O)O)[C@@H](O)[C@H]2O)c1N
IC50 (HCC1569): 994 µM | IC50 (LN-405): > 2000 µM | IC50 (KYSE-520 cell line): 382 µM | IC50 (SW1088): > 2000 µM | IC50 (769-P): > 2000 µM | IC50 (PANC-03-27): > 2000 µM | IC50 (BXPC-3): 1350 µM | IC50 (639-V): > 2000 µM | IC50 (786-0): 1080 µM | IC50 (Daoy): 1510 µM | IC50 (SK-N-AS): > 2000 µM | IC50 (NCI-H2452): > 2000 µM | IC50 (MDA-MB-415): 655 µM | IC50 (NCI-H1793): > 2000 µM | IC50 (LoVo): > 2000 µM | IC50 (HGC-27): 1320 µM | IC50 (HLE): > 2000 µM | IC50 (SN12C): > 2000 µM | IC50 (EFO-27): 1680 µM | IC50 (T84): > 2000 µM | IC50 (CAL-27): > 2000 µM | IC50 (NCI-H2087): > 2000 µM | IC50 (ABC-1): > 2000 µM | IC50 (8505C): > 2000 µM | IC50 (SW948): > 2000 µM | IC50 (NCI-H1623): > 2000 µM | IC50 (CAL-62): > 2000 µM | IC50 (UMC-11): > 2000 µM | IC50 (RT-112): 1870 µM | IC50 (CaR-1): 1650 µM | IC50 (NCI-H1792): 1590 µM | IC50 (C-33-A): > 2000 µM | IC50 (WM-115): > 2000 µM | IC50 (SW837): > 2000 µM | IC50 (FaDu): 1060 µM | IC50 (SW1463): > 2000 µM | IC50 (D-392MG): > 2000 µM | IC50 (DMS-273): > 2000 µM | IC50 (GAMG): > 2000 µM | IC50 (HT1197): > 2000 µM | IC50 (KOSC-2): 526 µM | IC50 (CAPAN-1): > 2000 µM | IC50 (A-427): > 2000 µM | IC50 (SW13): > 2000 µM | IC50 5637: > 2000 µM

COc1cc(Nc2c(C#N)cnc3cc(OCCCN4CCN(C)CC4)c(OC)cc23)c(Cl)cc1Cl [BOSUTINIB]
IC50 (HCC1569): > 2 µM | IC50 (LN-405): > 2 µM | IC50 (KYSE-520 cell line): > 2 µM | IC50 (SW1088): > 2 µM | IC50 (769-P): 1.7 µM | IC50 (PANC-03-27): > 2 µM | IC50 (Kasumi 1): 0.723 µM | IC50 (BXPC-3): > 2 µM | IC50 (639-V): > 2 µM | IC50 (786-0): > 2 µM | IC50 (Daoy): > 2 µM | IC50 (SK-N-AS): > 2 µM | IC50 (NCI-H2452): > 2 µM | IC50 (MDA-MB-415): > 2 µM | IC50 (NCI-H1793): > 2 µM | IC50 (LoVo): 1.98 µM | IC50 (HGC-27): > 2 µM | IC50 (HLE): > 2 µM | IC50 (SN12C): > 2 µM | IC50 (EFO-27): 1.69 µM | IC50 (T84): > 2 µM | IC50 (CAL-27): 0.929 µM | IC50 (NCI-H2087): > 2 µM | IC50 (ABC-1): > 2 µM | IC50 (8505C): > 2 µM | IC50 (SW948): > 2 µM | IC50 (NCI-H1623): > 2 µM | IC50 (CAL-62): > 2 µM | IC50 (UMC-11): > 2 µM | IC50 (RT-112): > 2 µM | IC50 (CaR-1): > 2 µM | IC50 (NCI-H1792): > 2 µM | IC50 (C-33-A): > 2 µM | IC50 (WM-115): > 2 µM | IC50 (SW837): > 2 µM | IC50 (FaDu): > 2 µM | IC50 (SW1463): > 2 µM | IC50 (D-392MG): > 2 µM | IC50 (DMS-273): > 2 µM | IC50 (GAMG): > 2 µM | IC50 (HT1197): > 2 µM | IC50 (KOSC-2): 1.32 µM | IC50 (CAPAN-1): > 2 µM | IC50 (A-427): > 2 µM | IC50 (SW13): 0.738 µM | IC50 5637: 1.14 µM

CC[C@@]1(O)C(=O)OCc2c1cc1n(c2=O)Cc2cc3ccccc3nc2-1 [CAMPTOTHECIN]
IC50 (LN-405): > 0.1 µM | IC50 (KYSE-520 cell line): 0.0826 µM | IC50 (SW1088): 0.0278 µM | IC50 (769-P): 0.0253 µM | IC50 (PANC-03-27): 0.0071 µM | IC50 (Kasumi 1): 0.00407 µM | IC50 (639-V): 0.000171 µM | IC50 (786-0): 0.00502 µM | IC50 (Daoy): 0.000481 µM | IC50 (SK-N-AS): 0.00538 µM | IC50 (NCI-H2452): 0.0909 µM | IC50 (NCI-H1793): 0.0272 µM | IC50 (LoVo): 0.0149 µM | IC50 (HGC-27): 0.00407 µM | IC50 (HLE): 0.00575 µM | IC50 (SN12C): 0.0045 µM | IC50 (EFO-27): 0.081 µM | IC50 (T84): > 0.1 µM | IC50 (CAL-27): 0.00202 µM | IC50 (NCI-H2087): 0.00507 µM | IC50 (ABC-1): 0.00347 µM | IC50 (8505C): 0.0033 µM | IC50 (NCI-H1623): 0.000748 µM | IC50 (CAL-62): 0.000984 µM | IC50 (UMC-11): > 0.1 µM | IC50 (RT-112): 0.0149 µM | IC50 (CaR-1): 0.00643 µM | IC50 (NCI-H1792): 0.0401 µM | IC50 (C-33-A): 0.00648 µM | IC50 (SW837): 0.0489 µM | IC50 (FaDu): 0.000539 µM | IC50 (SW1463): 0.0517 µM | IC50 (D-392MG): 0.0177 µM | IC50 (DMS-273): 0.00607 µM | IC50 (GAMG): 0.00153 µM | IC50 (HT1197): > 0.1 µM | IC50 (KOSC-2): 0.00439 µM | IC50 (CAPAN-1): 0.015 µM | IC50 (A-427): 0.00425 µM | IC50 (SW13): 0.00299 µM | IC50 5637: 0.00418 µM
